# Reference: patent publication US12344852B2, “Control of phenotype in plants” (GREENVENUS, LLC, priority 2016, dated 2025)
# Columns and labels:
# [1] = tested on: FT gene under EcR-based gene switch; experiment: FT expression by qRT-PCR over the time-course of induction in ID14-50 plants; type: in vivo, Arabidopsis; details: homozygous ID14-50 T3 plants, all concentrations (10, 50, 250 nM), long and short day photoperiod
# Description: FT expression was characterized at five time-points over the time-course of induction. One leaf per plant was collected at time-zero before ligand application corresponding to 17 and 24 days old plants in long and short day photoperiod, at one day after treatment started corresponding to 18 and 25 days old plants, four days after treatment started corresponding to 21 and 28 days old plants, seven days after ligand application started corresponding to 24 and 31 days old plants and, eleven days after treatment started corresponding to 28 and 35 days old plants for RNA extraction using a Qiagen RNA easy kit. First-strand cDNA was synthesized from the total RNA to be used as template for qRT-PCR analysis. qRT-PCR was set-up as previously described for T2 characterization. […] For most homozygous plants FT expression stayed relatively high and to a similar level from day one to day seven post-treatment before going down a little by day eleven post-treatment. For all time points, tissue was collected at the end of a period of induction, right before treatment was re-applied. […] FT expression in mock-treated plants as well as null and mutant treated plants stayed very low for the most part over the eleven days of treatment. In all genotypes, there is a large variation in FT expression among individual plants in the groups of siblings.
# GUS reporter gene = experiment: Ligand inducible GUS silencing (Agro-infiltration, X-gluc staining) in DCL1/DCL2/GUS hairpin petunia lines; type: cell-based
# Method: Assay for Agro-infiltration. Transient β-glucoronidase (GUS) expression, was modified from previously reported literature (Wroblewski et al. (2005) Plant Biotechnol. J. 3(2):259-273). Specifically, Agrobacterium tumefaciens strain EHA105 containing an appropriate plasmid for GUS expression was grown overnight to an OD600 of 0.8 and re-suspended in induction buffer with the following components: MS basal medium (Sigma-Aldrich), 10 mM MgCl2, and 100 uM acetosyringone. After 4 hours, induced culture suspension was infiltrated into detached fully expanded petunia leaves (approximately 0.1 mL/leaf). Leaves were incubated in a humidity chamber at 28° C. for 3 days.
# Histochemical X-gluc staining for GUS visualization. […]
# Ligand inducible hairpin expression for dsRNA synthesis targeting two Botrytis cinerea genes and the GUS reporter gene. Ligand inducible expression of the DCL1/DCL2/GUS hairpin cassette was evaluated using the transient Agrobacterium-mediated GUS expression as described above only detached leaves were sprayed with 50 uM ligand or mock treated with water prior to Agro-infiltration. […]
# Eight independent Switch-DCL1/DCL2/GUS petunia lines were evaluated by detaching 6 leaves from each line and splitting into two treatments. […]
# [2] = tested on: barstar gene under EcR-based switch; experiment: barstar expression by qRT-PCR in leaf and floral tissues of ID06 plants; type: in vivo, Arabidopsis; details: 250 nM vs water
# [3] = tested on: EcR-based gene switch (IP:GFP, ID38) in transgenic Arabidopsis leaf samples; experiment: Ligand-induced GFP expression in leaf samples of IP:GFP (ID38) transgenic plants; type: cell-based; details: leaf samples of IP:GFP plants on media containing ligand, 24 hr; not induced in wt control
# Description: Transform wild type Arabidopsis to introduce inducible GFP reporter: DNA construct ID38, which is shown diagrammatically in FIG. 1A, may be used to transform wild type (wt) Arabidopsis. […]
# GFP gene will not be expressed until methoxyfenozide (activator ligand—AL) is provided to mobilize the activator proteins for binding to the GAL4-RE and switching on the IP. […] Since GFP expression can be conveniently monitored in live plants under a fluorescence microscope, the transgenic Arabidopsis can be used to study the dosage, timing, and half life time of the ligand application. […]
# Briefly, the DNA constructs shown in FIG. 1 were built following standard molecular cloning procedures and transformed into disarmed Agrobacterium tumefaciens strain AGL1. […] Selected transgenic plants were analyzed by quantitative PCR (qPCR) and PCR to check transgene copy numbers and transgene intactness. […]
compound,measurement,setting,value
"COc1cccc(C(=O)NN(C(=O)c2cc(C)cc(C)c2)C(C)(C)C)c1C [methoxyfenozide, 3-methoxy-2-methylbenzoic acid 2-(3,5-dimethylbenzoyl)-2-(1,1-dimethylethyl)hydrazide]",FT expression,[1],increases as early as one day post-treatment
same,GUS expression in constitutive controls DCL-25 and DCL-6,GUS reporter gene; 50 uM ligand vs water,did not show any ligand induced changes to GUS expression
same,GUS expression in Switch DCL-8 line,"GUS reporter gene; 50 uM sprayed on detached leaves twice, Agro-infiltration at 3 days, X-gluc staining 3 days later, listed as ligand",ligand induced GUS silencing
same,expression of barstar,[2],dramatically increased
same,concentration at which GFP expression was induced,[3],≤ 16 nM
